The subject of assay [1] is Pseudomonas aeruginosa. Briefly: Dynamic biofilm formation assay (drip-flow reactor, CLSM). Type of assay: cell-based. Conditions: 48 hours, 10 μM, smaller volume and thickness than control. How it is done: Glass slides were placed in a drip-flow reactor, and an AB medium containing 5% P. aeruginosa (OD 595 nm=1.0) was added along with a positive control or compound (0 to 10 μM) and the reactor was continuously operated using peristaltic pumps (Masterflex C/L tubing pumps, Cole-Parmer, Ill., USA) at 0.3 ml/min. After the above-described process was carried out at 37° C. for 48 hours, unattached biofilm cells were removed with PBS. The remaining biofilm cells were stained with DAPI (Sigma-Aldrich) for 10 minutes, and observed by confocal laser scanning microscopy (CLSM; Carl Zeiss LSM700, Jena, Germany). The CLSM image of the biofilm cells was obtained with a 20× objective lens (W NAchroplanX20/0.5W (DIC) M27) under blue fluorescence light (excitation wavelength: 350 nm, emission wavelength: 470 nm) using a Z-stack mode of the Zen 2011 program. The volume and thickness of the biofilm were measured using Comstat2 of the ImageJ program based on a CLSM image.

Assay [2] addresses T1, LasR (Pseudomonas aeruginosa, UniProt P25084).
T1 construct: expressed in transfected cells; host or cells: E. coli DH5a co-transformed with pJN105L and pSC11 (lasI::lacZ)
Conditions: previous studies; cited from earlier work.

Assay [3] deals with rhlA. Briefly: RT-qPCR analysis of rhlA expression in biofilm cells. The class given is cell-based, Pseudomonas aeruginosa. Particulars: 10 μM, FIG. 9B. How it is done:
P. aeruginosa (OD 595 nm=1.0) overnight cultured with a positive control or compound (0-10 μM) was diluted (1:20) in an AB medium in a borosilicate bottle. Afterward, after culture for 24 hours at 37° C., biofilm cells were collected for RNA extraction. Total RNA was extracted using a TRI reagent (Molecular Research Center, OH, USA) according to the manufacturer's instruction. To quantify and compare QS-related gene expression levels, RT-qPCR was performed. For RT-qPCR, a SYBR Premix Ex Taq™ (Takara, Shiga, Japan), a CFX-96 real-time system (Bio-Rad, Hercules, Calif. USA), and a QS-related gene primer set were used. The thermal profile of the RT-qPCR is as follows: 40 cycles of initial denaturation for 10 seconds at 95° C., denaturation for 10 seconds at 95° C., annealing for 10 seconds at 60° C., and extension for 34 seconds at 63° C. A fluorescent signal intensity was collected at the end of the elongation step.
Background: In qPCR the cycle at which signal appears reflects the starting amount.

In assay [4] the test system is Pseudomonas aeruginosa. Briefly: Bacterial growth under static condition (OD 595 nm of suspended culture). Type of assay: cell-based. Particulars: for activity at 10 µM / activity at 100 µM: Pseudomonas aeruginosa, 24 h; for activity at 10 µM: read-out: Relative biological activity (%) Bacterial growth 10; for activity at 100 µM: read-out: Relative biological activity (%) Bacterial growth 100. How it is done: (§1) Pseudomonas aeruginosa (P. aeruginosa) (OD 595 nm=1.0) was cultured overnight, and diluted in an AB medium (1:20; 300 mM NaCl, 50 mM MgSO4, 0.2% vitamin-free casamino acids, 10 mM potassium phosphate, 1 mM L-arginine, and 1% glucose, pH 7.5) together with a positive control or compound (0100 μM) in a borosilicate bottle. The resulting mixture was incubated without shaking at 37° C. for 24 hours, and to measure growth inhibition activity. OD 595 nm of the suspended culture was measured using a multimode plate reader. Biofilm cells attached to the bottle were washed twice with phosphate-buffered saline (PBS; 137 mM NaCl, 2.7 mM KCl, 10 mM Na2HPO4, and 2 mM KH2PO4, pH 7.2). Afterward, the remaining biofilm cells were stained with 0.1% crystal violet for 10 minutes, and to remove the unbound crystal violet, washed with deionized water. The crystal violet […] to the biofilm cells was eluted with 100% ethanol, and the OD of the eluted ethanol sample was measured at 545 nm using a multimode plate reader.

For assay [5], the system named is Pseudomonas aeruginosa. Briefly: Static biofilm formation assay (crystal violet). The class given is cell-based. Conditions: for activity at 10 µM / activity at 100 µM: Pseudomonas aeruginosa, 24 h, Table 3; for activity at 10 µM: read-out: Relative biological activity (%) Biofilm formation 10; for activity at 100 µM: read-out: Relative biological activity (%) Biofilm formation 100. Here is the method:
as §1

In assay [6] the target is T2, RhlR (Pseudomonas aeruginosa, UniProt P54292).
T2 construct: expressed in transfected cells; host or cells: E. coli sdiA variant co-transformed with pJN105R and pSC11 (RhlA::lacZ)
T2 sequence (P54292 whole entry): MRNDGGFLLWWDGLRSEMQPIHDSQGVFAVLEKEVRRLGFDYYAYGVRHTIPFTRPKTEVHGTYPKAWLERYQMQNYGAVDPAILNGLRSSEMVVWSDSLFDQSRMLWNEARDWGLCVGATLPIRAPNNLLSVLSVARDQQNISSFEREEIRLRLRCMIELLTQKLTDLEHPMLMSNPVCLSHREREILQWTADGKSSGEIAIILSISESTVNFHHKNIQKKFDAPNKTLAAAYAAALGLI
Briefly: cell-based. Particulars: for Relative RhIR Activity (%) Agonism 100 / Relative RhIR Activity (%) Agonism 1000: Table 3; for Relative RhIR Activity (%) Agonism 1000: 1000 (μM); for IC50: dose-response, FIG. 6A, different concentrations (0 to 100 μM); for remaining activity at 10 µM: read-out: Relative RhIR Activity (%) Antagonism 10, Table 3; for activity at 100 µM: read-out: Relative RhlR activity Agonism, Table 2.

For assay [7], the system named is P. aeruginosa. Briefly: Rhamnolipid production assay. Type of assay: cell-based, Pseudomonas aeruginosa. Particulars: for activity at 10 µM / activity at 100 µM: Pseudomonas aeruginosa, 24 h; for activity at 10 µM: read-out: Relative biological activity (%) Rhamnolipid production 10; for activity at 100 µM: read-out: Relative biological activity (%) Rhamnolipid production 100. How it is done:
P. aeruginosa (OD 595 nm=1.0) cultured overnight was inoculated in an AB medium (1:100) with a positive control or compound (0100 μM), and incubated using a shaking culture for 24 hours at 37° C. The cell culture was centrifuged for 5 minutes at 4° C. and 12,000 g. Rhamnolipids were extracted twice by mixing 200 μL of a supernatant and 400 μL of 100% diethyl ether (JUNSEI, Tokyo, Japan). The supernatant was transferred to a new tube and evaporated. A dried sample was eluted with 20 μL of deionized water, and reacted with 180 μL of an Orcinal solution (0.19% Orcinal (Sigma-Aldrich) in 53% H2SO4). The reaction mixture was heated for 30 minutes at 80° C., and cooled for 15 minutes at room temperature. The amount of rhamnolipids was measured at OD 421 nm, and normalized in the cell culture solution at OD 595 nm using a multimode plate reader.

Assay [8] concerns the target T1, LasR. Briefly: QS reporter strain assay, LasR (lasI::lacZ). Type of assay: cell-based. Conditions: 0.1 and 10 μM; FIG. 6C. Here is the method: For RhlR reporter strain analysis, the present invention used pJN105R (RhlR expression plasmid), anspSC11 (RhlA::lacZ fusion plasmid) and an sdiA variant co-transformed with the two plasmids. 1% of an overnight-cultured reporter strain (OD 595 nm=1.0) supplemented with 10 μg/mL gentamicin and 50 μg/mL ampicillin was cultured in a Luria-Bertani (LB) medium (Difco, Detroit, Mich., USA) with a positive control or a compound (0-1000 μM) and BHL (0-10 μM) (Sigma-Aldrich) at 37° C. for 2 hours. 0.4% arabinose (Sigma-Aldrich) was reacted with the resulting product at 37° C. for 1.5 hours. β-galactosidase activity was evaluated using a Tropix plus kit (Applied Biosystems, CA, USA), and OD 595 nm and luminescence were measured using a VICTOR x5 multimode plate reader (PerkinElmer, Waltham, Mass., USA). Relative RhlR activity was quantified by measuring luminescence at OD 595 nm. In addition, for LasR reporter strain analysis, the present invention used pJN105L (LasR expression plasmid) and pSC11 (lasI::lacZ fusion plasmid), E. coli DH5a co-transformed with the two plasmids, and OdDHL (Sigma-Aldrich).

Where [9] appears, read: Table 4, concentration not given.
Where [10] appears, read: Table 2, footnotes not given, 100 μM per Table 3, lower = stronger antagonism.
The mark [11] stands for this setting: read-out: Relative RhIR Activity (%) Antagonism 100, Table 3, 100 (μM).
The mark [12] stands for this setting: footnotes not given, matches the 100 column of Table 3.
Setting [13] is: read-out: Relative RhlR activity Antagonism, Table 2, footnotes not given, 100 μM per Table 3, lower = stronger antagonism.

Read-outs that look alike come from different tables or passages of the source. Marks after values point to notes of the source that are not given here.

T1 sequence (P25084 whole entry): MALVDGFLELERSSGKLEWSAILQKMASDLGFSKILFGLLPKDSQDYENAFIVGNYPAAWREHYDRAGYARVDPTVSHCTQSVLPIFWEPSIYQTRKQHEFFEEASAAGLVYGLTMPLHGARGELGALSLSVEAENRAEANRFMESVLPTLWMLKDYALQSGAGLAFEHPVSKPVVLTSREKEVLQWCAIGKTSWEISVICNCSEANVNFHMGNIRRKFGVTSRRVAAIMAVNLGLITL

Consider `CCCCC[C@H](O)CC(=O)CCc1ccc(O)c(OC)c1` [Compound 1c, (S)-6-gingerol, reference compound], for which the “biofilm appearance under flow condition vs control” value in assay [1] is “thinner and more dispersed biofilm”. The “LasR antagonistic activity (reported previously)” value in assay [2] is on record as “LasR antagonistic activity”. Further, in assay [3], the “downregulation of rhlA expression of biofilm cells” value was determined as 38%. Besides, in assay [4], the activity at 10 µM was 96% and the activity at 100 µM is 101%.
The IC50 is the concentration needed to halve the response being measured. `CCCC(=O)NC1CCCC1` [Compound 1d, N-cyclopentylbutyramide, reference compound]: the activity at 10 µM is 84% in assay [5] (static); 95% in assay [4] (Table 3, 10 (μM)); 58% in assay [7]. Also, the activity at 100 µM is 69% in assay [5] (static); 98% in assay [4] (Table 3, 100 (μM)); 4% in assay [6] (setting [12]); 45% in assay [7]. In addition, the “Relative biological activity (%) Biofilm formation” value in assay [5] (setting [9]) is recorded as 81* %. In addition, in assay [1], the “biofilm appearance under flow condition vs control” value was “thinner and more dispersed biofilm”. Further, in assay [6] (setting [10]), the “Relative RhlR activity Antagonism” value was 54** %. In addition, the “Relative RhIR Activity (%) Agonism 100” value in assay [6] (100 (μM)) is recorded as 4** %. Also, the “Relative RhIR Activity (%) Agonism 1000” value in assay [6] came out at 37%. The “Relative RhIR activity (%) Agonism” value in assay [6] (setting [9]) is listed as 4** %. The compound also displayed an IC50 in assay [6] of 86 µM. Besides, in assay [6], the remaining activity at 10 µM worked out at 74%. The remaining activity at 100 µM in assay [6] (setting [11]) and in assay [6] (setting [13]) was 54% each time. The “Relative biological activity (%) Rhamnolipid production” value in assay [7] (setting [9]) is 68* %.
`CCCC(O)CC(=O)CCc1ccc(O)c(OC)c1` (centres unmarked) [Compound 12a, 5-Hydroxy-1-(4-hydroxy-3-methoxyphenyl)octan-3-one]: in assay [8], the LasR antagonistic activity result is recorded as “no LasR antagonistic activity”. Moreover, in assay [6] (setting [10]), the “Relative RhlR activity Antagonism” value is reported as 69** %. In assay [6] (Table 2, footnotes not given, matches the 100 column of Table 3), the “Relative RhlR activity Agonism” value is recorded as 4** %. In addition, the IC50 in assay [6] was determined as 218 µM.
As for `CCCCCC(=O)C#Cc1ccc(F)c(F)c1` [Compound 32, 1-(3,4-Difluorophenyl)oct-1-yn-3-one], the activity at 10 µM in assay [5] (static) amounted to 71%; in assay [4] (Table 3, 10 (μM)), 100%; in assay [7] (Table 3, 10 (μM)), 60%. The activity at 100 µM in assay [5] (static) was determined as 56%; in assay [4] (Table 3, 100 (μM)), 88%; in assay [6] (setting [12]), 3%; in assay [7] (Table 3, 100 (μM)), 58%. Further, the “biofilm formation compared with a control (in words)” value in assay [5] (static, 100 μM) is reported as “significantly inhibited”. Besides, the “effect on cell growth (in words)” value in assay [4] (100 PM [sic] (100 μM)) is given as “slightly inhibited”. Moreover, in assay [6] (100 (μM)), the “Relative RhIR Activity (%) Agonism 100” value is 3** %. In assay [6], the “Relative RhIR Activity (%) Agonism 1000” value is recorded as 5** %. In addition, the remaining activity at 10 µM in assay [6] was 39%. Moreover, the remaining activity at 100 µM in assay [6] (setting [11]) and in assay [6] (setting [13]) was 17% each time.
Turning to `CCC[C@@H](O)C#Cc1ccc(F)c(F)c1` [Compound 33b, (R)-1-(3,4-Difluorophenyl)hex-1-yn-3-ol], the activity at 10 µM is 74% in assay [5] (static); 98% in assay [4] (Table 3, 10 (μM)); 60% in assay [7] (Table 3, 10 (μM)). In addition, the activity at 100 µM was determined as 60% in assay [5] (static); 102% in assay [4] (Table 3, 100 (μM)); 3% in assay [6] (setting [12]); 48% in assay [7] (Table 3, 100 (μM)). Further, in assay [6] (100 (μM)), the “Relative RhIR Activity (%) Agonism 100” value is reported as 3** %. In addition, the “Relative RhIR Activity (%) Agonism 1000” value in assay [6] is recorded as 5** %. In addition, the remaining activity at 10 µM in assay [6] amounted to 45%. For the same compound, the remaining activity at 100 µM in assay [6] (setting [11]) and in assay [6] (setting [13]) was 25% throughout.
Take `CCC[C@H](O)C#Cc1ccc(F)c(F)c1` [Compound 33c, (S)-1-(3,4-Difluorophenyl)hex-1-yn-3-ol]: the activity at 10 µM in assay [5] (static) came out at 79%; in assay [4] (Table 3, 10 (μM)), 98%; in assay [7] (Table 3, 10 (μM)), 59%. Moreover, the activity at 100 µM in assay [5] (static) is 64%; in assay [4] (Table 3, 100 (μM)), 99%; in assay [6] (setting [12]) it was 3%; in assay [7] (Table 3, 100 (μM)), 52%. Besides, the “Relative RhIR Activity (%) Agonism 100” value in assay [6] (100 (μM)) is reported as 3** %. Also, the “Relative RhIR Activity (%) Agonism 1000” value in assay [6] is listed as 5** %. The remaining activity at 10 µM in assay [6] is 59%. For the same compound, the remaining activity at 100 µM in assay [6] (setting [11]) and in assay [6] (setting [13]) was 38% in each case.

Source of the values: US20220289657A1, “COMPOSITION FOR PREVENTING OR TREATING BACTERIAL INFECTIOUS DISEASE COMPRISING 4-GINGEROL DERIVATIVE COMPOUND AS ACTIVE INGREDIENT” (KOREA UNIVERSITY RESEARCH AND BUSINESS FOUNDATION, SEJONG …, priority 2019, published 2022).
